According to patent publication US4885283A, “Phosphinic acid derivatives” (Hoffmann-La Roche Inc., priority 1986, dated 1989):

Assays:
[1] = target: T1, collagenase obtained from a culture of human synovial fibroblasts (Homo sapiens, UniProt P03956); assay: in vitro inhibition of collagenase (microtitre plate assay, 14C-acetylated collagen type I from rat tail tendons as substrate); type: biochemical; conditions: human synovial fibroblast collagenase, trypsin-activated; 14C-acetylated collagen type I substrate
T1 construct: endogenous in cells; host or cells: culture of human synovial fibroblasts (conditioned medium)
T1 sequence (P03956 100-469): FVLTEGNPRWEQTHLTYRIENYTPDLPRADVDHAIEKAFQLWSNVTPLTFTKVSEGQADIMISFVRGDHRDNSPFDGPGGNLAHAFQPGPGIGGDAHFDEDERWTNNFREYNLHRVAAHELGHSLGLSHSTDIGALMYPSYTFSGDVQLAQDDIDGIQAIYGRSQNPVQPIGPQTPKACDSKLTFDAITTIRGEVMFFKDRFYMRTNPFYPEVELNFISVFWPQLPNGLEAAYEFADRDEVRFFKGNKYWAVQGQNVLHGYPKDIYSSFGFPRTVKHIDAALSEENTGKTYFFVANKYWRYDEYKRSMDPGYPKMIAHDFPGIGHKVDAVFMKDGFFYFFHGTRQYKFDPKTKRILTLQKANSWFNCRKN
Description: Collagenase activity was measured using ^14 C-acetylated collagen type I from rat tail tendons as the substrate and employing the microtitre plate assay method of Johnson-Wint, B. Anal. Biochem. (1980), 104, 175. The IC50 is that concentration of a compound of formula I of the invention in the enzyme digestion which reduces substrate cleavage and solubilization to 50% of that achieved by the enzyme alone.
The results obtained in the foregoing test with representative compounds of this invention are compiled in the Table I hereinafter: […]

female rats = assay: in vivo type II collagen/Freund's incomplete adjuvant rat test: hind paw inflammation and radiological change; conditions: 20 mg kg^-1 twice daily for 12 days via jugular vein catheter
Description: Groups of female rats received an intradermal injection into the shaved backs of 10×0.1 ml of an emulsion of type II collagen/Freund's incomplete adjuvant. Ten days later the test compound was administered twice daily at a dosage of 20 mg kg^-1 via indwelling jugular vein catheters; dosing was continued for 12 days. Groups of rats which received the intradermal injection, but which were not treated with test compounds, served as the control. The incidence of hind paw inflammation was assessed visually at intervals throughout the test and was expressed as the proportion of the group showing signs of erythema and/or swelling. Radiological change in the ankle region of the hind paws was assessed at the termination of the test and was quantified using an arbitrary scale of from 0=normal to 6=severe change, results being expressed as group means. Statistical analysis was performed using the Mann-Whitney "U" test.

| IC50 [1] [µM] | Compound | Inflammation day 4 (female rats; proportion of group showing erythema and/or swelling of hind paw, Control 8/11) | Radiological scores, Tarsus (female rats; scale 0=normal to 6=severe change, group mean at termination, Control 1.75 ± 0.45) | Radiological scores, Talus (female rats; scale 0=normal to 6=severe change, group mean at termination, Control 2.28 ± 0.53) |
| --- | --- | --- | --- | --- |
| 0.6 | CNC(=O)[C@H](CC(C)C)NC(=O)C(CC(C)C)CP(=O)(O)CN1C(=O)c2cccc(N)c2C1=O (mixture of isomers) [Compound B, [(3-aminophthalimido)methyl][(RS)-4-methyl-2-[[(S)-3-methyl-1-(methylcarbamoyl)butyl]carbamoyl]pentyl]phosphinic acid] | – | – | – |
| 0.056 | CC(C)CC(CP(=O)(O)CNC(=O)[C@H](CC(C)C)NC(=O)[C@@H]1CCCN1C(=O)OCc1ccccc1)C(=O)N[C@@H](CC(C)C)C(=O)N[C@@H](C)C(=O)O (single isomer, unassigned) [Compound A, N-[N-[(R or S)-2-[[[[[N-[1-[(benzyloxy)carbonyl]-L-prolyl]-L-leucyl]amino]methyl]hydroxyphosphinyl]methyl]-4-methylvaleryl]-L-leucyl]-L-alanine] | – | – | – |
| 0.11 | CC(C)CC(CP(=O)(O)CN1C(=O)c2cccc3cccc(c23)C1=O)C(=O)NC1CCCCCCCCCCNC1=O (single isomer, unassigned) [Compound D, [(R or S)-4-methyl-2-[[(R or S)-2-oxo-3-azacyclotridecyl]carbamoyl]pentyl](1,8-naphthalenedicarboximidomethyl)phosphinic acid] | 3/12 | 0.64 ± 0.37 | 0.86 ± 0.34 |
| 0.22 | CC(C)C[C@@H](CP(=O)(O)Cn1c(=O)[nH]c2ccccc2c1=O)C(=O)N[C@@H]1CCCCCCCCCCNC1=O (single isomer, unassigned) [Compound E, [[1,4-dihydro-2,4-dioxo-3(2H)-quinazolinyl]methyl][(R or S)-4-methyl-2-[[(R or S)-2-oxo-3-azacyclotridecyl]carbamoyl]pentyl]phosphinic acid] | – | – | – |
| 0.16 | CNC(=O)[C@H](CC(C)C)NC(=O)C(CC(C)C)CP(=O)(O)CN1C(=O)c2cccc3cccc(c23)C1=O (stereo partly drawn) [Compound C, [(RS)-4-methyl-2-[[(S)-3-methyl-1-(methylcarbamoyl)butyl]carbamoyl]pentyl](1,8-naphthalendicarboximidomethyl)phosphinic acid] | – | – | – |
